In patent US20050228050A1, “Novel stable crystals of substituted phenylpropionic acid derivative and process for producing the same” (priority 2001, published 2005):

Experiments:
[1] = Differential thermal analysis (DTA) and thermogravimetry (TG) of crystals; type: physicochemical
Protocol: Differential Thermal Analysis (DTA) and Thermogravimetry (TG)
The thermal stability of crystals was compared by using apparatus for thermal analysis (SII: TG/DTA6200). […] With the new type crystals, the endothermic phenomenon due to transition was seen from 131.4° C. and the endothermic peak due to melting was shown at 132.0° C.

[2] = Hygroscopicity of crystals; type: physicochemical; conditions: stated without described test

weight change in thermogravimetry ([1]; TG/DTA6200 thermal analysis, FIG. 3 and 4): no weight change | thermal stability of crystals ([1]; conclusion from DTA/TG comparison of new and old type crystals): thermally stable | hygroscopicity [2]: no hygroscopicity
SMILES: CC[C@@H](Cc1ccc(OC)c(C(=O)NCc2ccc(Oc3ccc(F)cc3)cc2)c1)C(=O)O [new type crystals, (S)-2-[[3-[N-[4-[(4-fluorophenoxy)phenyl]methyl]-carbamoyl]-4-methoxyphenyl]methyl]butanoic acid]
